Test results: ChEMBL document CHEMBL5528002, “Identification of selective 5-LOX and FLAP inhibitors as novel anti-inflammatory agents by ligand-based virtual screening” (Eur J Med Chem, 2024)
The source made the active and inactive calls. No cut-off for these calls is given here.

Assays:
Macrophage cell line [1] = test: Effect on lipid mediator formation in human M2-like phenotype MDM cells by measuring TXB2 formation at 10 uM pre-incubated for 15 mins followed by SACM stimulation and measured after 90 mins by UPLC-MS/MS analysis (reference value: 4488 +/- 452 pg/ml); format: functional; conditions: time 105 min, 1.75 h
Macrophage cell line [2] = test: Effect on lipid mediator formation in human M2-like phenotype MDM cells by measuring RvD1 formation at 10 uM pre-incubated for 15 mins followed by SACM stimulation and measured after 90 mins by UPLC-MS/MS analysis relative to control; format: functional; conditions: time 105 min, 1.75 h
Macrophage cell line [3] = test: Effect on lipid mediator formation in human M1-like phenotype MDM cells by measuring 5S,6R-diHETE formation at 10 uM pre-incubated for 15 mins followed by SACM stimulation and measured after 90 mins by UPLC-MS/MS analysis (reference value: 226 +/- 78 pg/ml); format: functional; conditions: time 105 min, 1.75 h
Macrophage cell line [4] = test: Effect on lipid mediator formation in human M2-like phenotype MDM cells by measuring 15-HEPE formation at 10 uM pre-incubated for 15 mins followed by SACM stimulation and measured after 90 mins by UPLC-MS/MS analysis (reference value: 1385 +/- 343 pg/ml); format: functional; conditions: time 105 min, 1.75 h
Macrophage cell line [5] = test: Effect on lipid mediator formation in human M1-like phenotype MDM cells by measuring 5-HETE formation at 10 uM pre-incubated for 15 mins followed by SACM stimulation and measured after 90 mins by UPLC-MS/MS analysis relative to control; format: functional; conditions: time 105 min, 1.75 h
Macrophage cell line [6] = test: Effect on lipid mediator formation in human M2-like phenotype MDM cells by measuring PGF2alpha formation at 10 uM pre-incubated for 15 mins followed by SACM stimulation and measured after 90 mins by UPLC-MS/MS analysis relative to control; format: functional; conditions: time 105 min, 1.75 h
Macrophage cell line [7] = test: Effect on lipid mediator formation in human M2-like phenotype MDM cells by measuring TXB2 formation at 10 uM pre-incubated for 15 mins followed by SACM stimulation and measured after 90 mins by UPLC-MS/MS analysis relative to control; format: functional; conditions: time 105 min, 1.75 h
Macrophage cell line [8] = test: Effect on lipid mediator formation in human M1-like phenotype MDM cells by measuring PGE2 formation at 10 uM pre-incubated for 15 mins followed by SACM stimulation and measured after 90 mins by UPLC-MS/MS analysis (reference value: 1789 +/- 871 pg/ml); format: functional; conditions: time 105 min, 1.75 h
Macrophage cell line [9] = test: Effect on lipid mediator formation in human M1-like phenotype MDM cells by measuring 12-HETE formation at 10 uM pre-incubated for 15 mins followed by SACM stimulation and measured after 90 mins by UPLC-MS/MS analysis relative to control; format: functional; conditions: time 105 min, 1.75 h
Neutrophil = test: Inhibition of ROS production in PMA-induced human Neutrophil cells at 1 uM incubated for 10 mins by DCFH-DA dye based fluorometric assay; format: functional, cell-based
Macrophage cell line [10] = test: Effect on lipid mediator formation in human M1-like phenotype MDM cells by measuring 12-HEPE formation at 10 uM pre-incubated for 15 mins followed by SACM stimulation and measured after 90 mins by UPLC-MS/MS analysis (reference value: 40 +/- 9 pg/ml); format: functional; conditions: time 105 min, 1.75 h
Macrophage cell line [11] = test: Effect on lipid mediator formation in human M1-like phenotype MDM cells by measuring 15-HETE formation at 10 uM pre-incubated for 15 mins followed by SACM stimulation and measured after 90 mins by UPLC-MS/MS analysis (reference value: 910 +/- 229 pg/ml); format: functional; conditions: time 105 min, 1.75 h
[12] = biological target: T1, Polyunsaturated fatty acid 5-lipoxygenase (Homo sapiens) (UniProt P09917); test: Inhibition of 5-LOX in human Neutrophil assessed as enzyme remaining activity at 10 uM preincubated with compound for 15 mins followed by A23187 addition measured after 10 mins by RP-HPLC analysis relative to control; format: cell-based; conditions: time 25.0 min
T1 sequence (whole entry): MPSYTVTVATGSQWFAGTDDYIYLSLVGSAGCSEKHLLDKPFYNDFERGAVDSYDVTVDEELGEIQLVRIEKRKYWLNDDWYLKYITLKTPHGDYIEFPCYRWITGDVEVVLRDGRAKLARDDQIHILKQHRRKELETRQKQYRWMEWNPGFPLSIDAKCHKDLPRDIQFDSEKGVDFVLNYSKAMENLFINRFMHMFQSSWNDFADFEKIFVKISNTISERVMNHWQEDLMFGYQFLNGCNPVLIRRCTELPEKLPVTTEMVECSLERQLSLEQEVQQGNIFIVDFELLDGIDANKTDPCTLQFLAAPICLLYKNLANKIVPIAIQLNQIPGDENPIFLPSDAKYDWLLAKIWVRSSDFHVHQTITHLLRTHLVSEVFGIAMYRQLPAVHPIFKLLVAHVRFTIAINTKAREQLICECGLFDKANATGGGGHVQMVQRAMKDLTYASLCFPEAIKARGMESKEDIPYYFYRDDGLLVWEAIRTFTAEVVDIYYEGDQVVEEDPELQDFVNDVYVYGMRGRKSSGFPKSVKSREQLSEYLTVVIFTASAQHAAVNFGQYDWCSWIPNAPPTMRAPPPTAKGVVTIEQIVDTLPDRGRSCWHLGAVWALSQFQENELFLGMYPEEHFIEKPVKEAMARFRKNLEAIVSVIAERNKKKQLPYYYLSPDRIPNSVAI

Macrophage cell line [13] = test: Effect on lipid mediator formation in human M1-like phenotype MDM cells by measuring 15-HEPE formation at 10 uM pre-incubated for 15 mins followed by SACM stimulation and measured after 90 mins by UPLC-MS/MS analysis (reference value: 57 +/- 10 pg/ml); format: functional; conditions: time 105 min, 1.75 h
Macrophage cell line [14] = test: Effect on lipid mediator formation in human M1-like phenotype MDM cells by measuring EPA formation at 10 uM pre-incubated for 15 mins followed by SACM stimulation and measured after 90 mins by UPLC-MS/MS analysis (reference value: 20261 +/- 1404 pg/ml); format: functional; conditions: time 105 min, 1.75 h
[15] = biological target: T2, Bifunctional epoxide hydrolase 2 (Homo sapiens) (UniProt P34913); test: Inhibition of human sEH at 10 uM relative to control
T2 sequence (whole entry): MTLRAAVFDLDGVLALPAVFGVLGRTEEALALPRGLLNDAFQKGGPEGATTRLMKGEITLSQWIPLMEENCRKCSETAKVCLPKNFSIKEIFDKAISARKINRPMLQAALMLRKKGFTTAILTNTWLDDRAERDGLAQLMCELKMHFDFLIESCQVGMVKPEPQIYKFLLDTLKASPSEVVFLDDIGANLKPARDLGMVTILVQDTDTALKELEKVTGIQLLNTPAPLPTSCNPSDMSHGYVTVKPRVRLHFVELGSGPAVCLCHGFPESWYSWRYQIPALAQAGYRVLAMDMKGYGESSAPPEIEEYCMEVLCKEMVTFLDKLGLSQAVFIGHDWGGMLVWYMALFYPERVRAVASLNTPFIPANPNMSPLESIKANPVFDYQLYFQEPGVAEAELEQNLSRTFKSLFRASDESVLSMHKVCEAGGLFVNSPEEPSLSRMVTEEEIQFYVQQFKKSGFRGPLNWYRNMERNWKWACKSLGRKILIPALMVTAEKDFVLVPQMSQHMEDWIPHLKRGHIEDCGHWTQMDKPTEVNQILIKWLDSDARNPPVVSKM

SMILES | Activity (Macrophage cell line [1]) | Activity (Macrophage cell line [2]) | Activity (Macrophage cell line [3]) | Activity (Macrophage cell line [4]) | Activity (Macrophage cell line [5]) | Activity (Macrophage cell line [6]) | Activity (Macrophage cell line [7]) | Activity (Macrophage cell line [8]) | Activity (Macrophage cell line [9]) | inhibition (Neutrophil) | Activity (Macrophage cell line [10]) | Activity (Macrophage cell line [11]) | Activity [12] | Activity (Macrophage cell line [13]) | Activity (Macrophage cell line [14]) | inhibition [15]
Oc1ccc(CCC2CCC(c3ccc(O)cc3)CO2)cc1 (configuration not stated) | 3850 pg/mL | 82% | 11 pg/mL | 1937 pg/mL | 13% | 80% | 86% | 1236 pg/mL | 87% | inactive | 36 pg/mL | 776 pg/mL | 4.2% | 55 pg/mL | 22962 pg/mL | > 35%
COc1ccc(C2=C/C(=C/c3ccc(O)cc3O)C(=O)O2)cc1 | 3416 pg/mL | 114% | 12 pg/mL | 2169 pg/mL | 7% | 125% | 76% | 1656 pg/mL | 87% | inactive | 37 pg/mL | 823 pg/mL | 19.6% | 55 pg/mL | 27649 pg/mL | > 35%
